Like-named read-outs stand apart in the source and are kept apart here.
Legend:
[1] = tested on: HIV-1 (GFP); assay: Infection of U87 cells with HIV-1 (GFP), titration of inhibitors; type: cell-based; conditions: for IC50: Human immunodeficiency virus 1, U-87 MG; for Potency relative to CsA: U87 cells, HIV-1 (GFP)
Description: FIG. 27: As explained in Example 3, this figure illustrates: in panel A, infection of U87 cells with HIV-1 (GFP), with a titration of inhibitors from 10 μm-0.04 μM (n=2±SEM), the vertical axis in each graph representing infectivity as a % of DMSO control; in panel B, Western blot of CypA in Huh7 cells 48 hrs after treatment with and without JW4-10.
Also used as a control in the experiments (see FIG. 27A) was SmBz ([Sarcosine-3(4-methylbenzoate)]-CsA). SmBz is disclosed in Malouitre et al. Biochem J. 2009 Dec. 14; 425(1):137-48. The anti HIV activity of SmBz is described in Rasaiyaah et al. Nature, 2013. 503(7476): p. 402-5.

[2] = tested on: IFN-β mRNA; type: cell-based, Homo sapiens; conditions: HCV-replicating Huh7 cells, 5 μM, 48 h
[3] = tested on: HCV replication (SGR); assay: microbe, parasite or virus in culture; type: cell-based; conditions: Hepatitis C virus
[4] = tested on: HCVcc (J6/JFH1-RLuc); assay: microbe, parasite or virus in culture; type: cell-based, Hepatitis C Virus; conditions: for IC50: Hepatitis C virus; for Effect on HCVcc infection at single dose: 72 h
[5] = tested on: HCV replication organelle (DMVs); type: cell-based, Homo sapiens; conditions: 5×EC90, 24 hours post-transfection
[6] = target: T1, CypD (Homo sapiens, UniProt P30405); type: cell-based; conditions: Huh7 cells, 1 μM, 24 hours
T1 construct: endogenous in cells; host or cells: Huh7 cells
T1 sequence (P30405 30-207): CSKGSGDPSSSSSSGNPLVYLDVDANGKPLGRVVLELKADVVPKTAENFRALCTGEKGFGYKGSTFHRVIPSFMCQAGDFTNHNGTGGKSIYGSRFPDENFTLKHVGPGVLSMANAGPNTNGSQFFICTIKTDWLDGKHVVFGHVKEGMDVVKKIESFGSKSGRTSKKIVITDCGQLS

[7] = target: T2, CypB (Homo sapiens, UniProt P23284); type: cell-based; conditions: Huh7 cells, 1 μM
T2 construct: endogenous in cells; host or cells: Huh7 cells
T2 sequence (P23284 34-216): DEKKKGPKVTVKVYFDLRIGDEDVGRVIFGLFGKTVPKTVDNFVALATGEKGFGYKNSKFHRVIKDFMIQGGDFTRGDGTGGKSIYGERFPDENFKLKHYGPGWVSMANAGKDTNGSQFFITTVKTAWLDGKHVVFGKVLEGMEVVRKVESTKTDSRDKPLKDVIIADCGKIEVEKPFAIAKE

[8] = tested on: IRF1 target genes; type: cell-based, Homo sapiens; conditions: HCV-replicating Huh7 cells, 5 μM, 48 hpe
[9] = target: T3, CypA (Homo sapiens, UniProt P62937); type: cell-based
T3 construct: endogenous in cells; host or cells: Huh7 and Huh7.5 cells
T3 sequence (P62937 whole entry): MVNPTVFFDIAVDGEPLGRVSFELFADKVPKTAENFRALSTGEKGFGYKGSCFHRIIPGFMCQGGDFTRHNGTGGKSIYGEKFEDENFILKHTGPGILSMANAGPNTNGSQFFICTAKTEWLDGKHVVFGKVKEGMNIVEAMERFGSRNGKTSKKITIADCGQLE

[10] = Huh7.5, Huh7.5, read-out: IC50 Replication (SGR)
[11] = Huh7.5-CTRL, read-out: IC50 Replication (SGR)
[12] = Huh-7, Huh7, read-out: IC50 Replication (SGR)
[13] = Huh-7, Huh7 MAVS KO, read-out: IC50 Replication (SGR)
[14] = Huh-7, Huh7 NT c7, read-out: IC50 Replication (SGR)
[15] = Huh-7, read-out: IC50 Replication (SGR), Huh7 MAVS KO + C508R
[16] = Huh7.5, read-out: IC50 HCVcc infection, Huh7.5
[17] = Huh-7, read-out: IC50 HCVcc infection, Huh7 NT c7

Row | Compound | IC50 [1] | Potency relative to CsA [1] | Induction of IFN-β expression [2] | IC50 [3, 10] | IC50 [3, 11] | IC50 [3, 12] | IC50 [3, 13] | IC50 [3, 14] | IC50 [3, 15] | IC50 [4, 16] | IC50 [4, 17] | other results
1 | CC[C@@H]1NC(=O)[C@H]([C@H](O)[C@H](C)C/C=C/CCCN2CCN(CC(=O)N[C@H](C(=O)N3C[C@H](O)C[C@H]3C(=O)N[C@@H](C)c3ccc(-c4scnc4C)cc3)C(C)(C)C)CC2)N(C)C(=O)[C@H](C(C)C)N(C)C(=O)[C@H](CC(C)C)N(C)C(=O)[C@H](CC(C)C)N(C)C(=O)[C@@H](C)NC(=O)[C@H](C)NC(=O)[C@H](CC(C)C)N(C)C(=O)[C@H](C(C)C)NC(=O)[C@H](CC(C)C)N(C)C(=O)CN(C)C1=O [JW4-21] | 700 ± 80 nM | decreased potency | – | – | – | – | – | – | – | – | – | –
2 | CC[C@@H]1NC(=O)[C@H]([C@H](O)[C@H](C)C/C=C/CCCn2ccnc2)N(C)C(=O)[C@H](C(C)C)N(C)C(=O)[C@H](CC(C)C)N(C)C(=O)[C@H](CC(C)C)N(C)C(=O)[C@@H](C)NC(=O)[C@H](C)NC(=O)[C@H](CC(C)C)N(C)C(=O)[C@H](C(C)C)NC(=O)[C@H](CC(C)C)N(C)C(=O)CN(C)C1=O [CsA-like, [Gly-(1S,2R,E)-8-(1H-imidazole-1-yl)-1-hydroxy-2-methyloct-4-ene]^1 CsA] | – | – | capable of inducing IFN-β expression | 1370 ± 197 nM | 527 ± 154 nM | 266 ± 37 nM | 160 ± 23 nM | 184 ± 26 nM | 141 ± 28 nM | 316 ± 83 nM | 123 ± 23 nM | IC50 ([3]; Huh7.5-Mda5, read-out: IC50 Replication (SGR)): 950 ± 247 nM; IC50 ([3]; Huh7.5-RIG-I/Mda5, read-out: IC50 Replication (SGR)): 1230 ± 298 nM; IC50 ([3]; Huh7.5-RIG-I, read-out: IC50 Replication (SGR)): 686 ± 181 nM; IC50 ([3]; Huh-7, Huh7 IRF1 KO c10, read-out: IC50 Replication (SGR)): 1220 ± 224 nM; IC50 ([3]; Huh-7, Huh7 IRF1 KO c11, read-out: IC50 Replication (SGR)): 1590 ± 284 nM; IC50 ([3]; Huh-7, Huh7 PKR KO c1, read-out: IC50 Replication (SGR)): 971 ± 186 nM; IC50 ([3]; Huh-7, Huh7 PKR KO c4, read-out: IC50 Replication (SGR)): 1250 ± 327 nM; IC50 ([4]; Huh-7, read-out: IC50 HCVcc infection, Huh7 PKR KO c4): 433 ± 101 nM
3 | CC[C@@H]1NC(=O)[C@H]([C@H](O)[C@H](C)C/C=C/CCOCCOCCOCCN[C@H](C(=O)N2C[C@H](O)C[C@H]2C(=O)N[C@@H](C)c2ccc(-c3scnc3C)cc2)C(C)(C)C)N(C)C(=O)[C@H](C(C)C)N(C)C(=O)[C@H](CC(C)C)N(C)C(=O)[C@H](CC(C)C)N(C)C(=O)[C@@H](C)NC(=O)[C@H](C)NC(=O)[C@H](CC(C)C)N(C)C(=O)[C@H](C(C)C)NC(=O)[C@H](CC(C)C)N(C)C(=O)CN(C)C1=O [JW4-20] | 120 ± 50 nM | increased potency | – | – | – | – | – | – | – | – | – | –
4 | CC[C@@H]1NC(=O)[C@H]([C@H](O)[C@H](C)C/C=C/CCCCC(=O)N[C@H](C(=O)N2C[C@H](O)C[C@H]2C(=O)N[C@@H](C)c2ccc(-c3scnc3C)cc2)C(C)(C)C)N(C)C(=O)[C@H](C(C)C)N(C)C(=O)[C@H](CC(C)C)N(C)C(=O)[C@H](CC(C)C)N(C)C(=O)[C@@H](C)NC(=O)[C@H](C)NC(=O)[C@H](CC(C)C)N(C)C(=O)[C@H](C(C)C)NC(=O)[C@H](CC(C)C)N(C)C(=O)CN(C)C1=O [CsA-Prtc1, [Gly-(1S,2R,E)-10-amido (E3 ligase ligand)-1-hydroxy-2-methyloct-4-ene]^1 CsA] | 90 ± 130 nM | – | not | 55 ± 7 nM | 70 ± 13 nM | 16 ± 2 nM | 10 ± 1 nM | 9 ± 1 nM | 8 ± 1 nM | 14 ± 3 nM | 12 ± 2 nM | Number and size of DMVs [5]: significant reduction in the number and size of DMVs; CypD protein expression [6]: minimal impact; CypB protein expression ([7]; 24 hours): minimal impact; CypB protein expression ([7]; 48 hours): CypB degradation was observed; IC50 ([4]; Huh-7, read-out: IC50 HCVcc infection, Huh7): 3 ± 1 nM; Effect on HCVcc infection at single dose ([4]; Huh7, 1 μM): completely inhibited HCVcc infection; Effect on HCVcc infection at single dose ([4]; Huh7.5, 1 μM): completely inhibited HCVcc infection; Induction of IRF1 target gene expression [8]: did not induce expression of IRF1 target genes; Proteasome dependence of CypA degradation ([9]; 1 μM with or without MG132 (10 μM), 24 hours): proteasome-dependent; CypA degradation ([9]; Huh7 and Huh7.5 cells, 1 μM, 48 h): degradation of CypA; CypA degradation ([9]; Huh7 cells, 48 hrs after treatment (FIG. 27B)): degradation of CypA
